In US7132568B2, “Aspartyl protease inhibitors” (Sunesis Pharmaceuticals, Inc., priority 2002, dated 2006):
pIC50, pKi: −log10 of the molar value.

Columns and labels:
[1] = test system: H4 neuroglioma cells stably transfected with APP (H4 β695wt); experiment: Cell-based Aβ secretion assay (sandwich ELISA) in H4 cells; conditions: Homo sapiens
From the text: This example describes an illustrative set of cell-based assays for testing the ability of the compounds of the present invention to inhibit the secretion of the Aβ peptide from cells expressing high levels of the human amyloid precursor protein (“APP”).
A representative set of such cells include A-204 rhabdomyosarcoma cells, human embryonic kidney 293 cells transiently transfected with APP, Chinese hamster ovary cells stably transfected with APP (CHO2B7), and H4 neuroglioma cells stably transfected with APP (H4 β695wt). The A-204 cells and HEK 293 cells were obtained from ATCC. For HEK 293 transient transfections, a pcDNA3 plasmid containing the human APP gene was obtained from Invitrogen, and cells were transfected with FuGENE 6 transfection reagent (Roche) following manufacturer's protocols. The CHO2B7 and H4 β695 wt lines were obtained from Mayo Clinic (J. Neuroscience Methods 108(2): 171–9 (2001)). […]
In the assay, cells were pre-treated with compounds for 1–2 hours to “wash out” any Aβ in the secretory pathway prior to incubation with compounds for the conditioning period required to generate detectable concentrations of Aβ. The production of secreted Aβ in cultured cells was monitored by sandwich ELISA, using the anti-Aβ monoclonal antibodies 6E10 and 4G8 (Signet Laboratories). […]

Cat D = Cat D (Homo sapiens, UniProt P07339); experiment: Cat D Ki determination (DABCYL/EDANS substrate); type: biochemical
Experimental: The Ki determination for Cat D was performed using the assay conditions derived from Haque et al., J. Med. Chem. 42: 1428–1440 (1999) and the following substrate: DABCYL-GLu-Arg-Nle-Phe-Leu-Ser-Phe-Pro-EDANS where Nle is norleucine and DABCYL and EDANS are as previously defined.

[2] = Metabolic stability in human liver microsomes; type: in vitro ADME; conditions: pH 7.4
Experimental: Metabolic stability was determined by incubating the compounds with human liver microsomes (100 μg/ml) in 100 mM Tris buffer pH 7.4 for 5 minutes at 37° C. Metabolic reactions were started by addition of NADPH to give a final concentration of […]. Reactions were stopped after 30 and 60 minutes by addition of acetonitrile. Protein was precipitated by centrifugation (3000 rpm×10 min) then supernatants were analyzed for remaining parent compound by LC/MS/MS.

[3] = Plasma stability in human plasma; type: in vitro ADME; conditions: 37° C.
Experimental: Plasma stability was determined by incubating the compounds in human plasma at a concentration of 1 μM at 37° C. for 0, 30 and 60 minutes. Reactions were stopped by addition of acetonitrile. Protein was precipitated by centrifugation (3000 rpm×10 min) then supernatants were analyzed for remaining parent compound by LC/MS/MS.

Sequence of Cat D (P07339 65-412): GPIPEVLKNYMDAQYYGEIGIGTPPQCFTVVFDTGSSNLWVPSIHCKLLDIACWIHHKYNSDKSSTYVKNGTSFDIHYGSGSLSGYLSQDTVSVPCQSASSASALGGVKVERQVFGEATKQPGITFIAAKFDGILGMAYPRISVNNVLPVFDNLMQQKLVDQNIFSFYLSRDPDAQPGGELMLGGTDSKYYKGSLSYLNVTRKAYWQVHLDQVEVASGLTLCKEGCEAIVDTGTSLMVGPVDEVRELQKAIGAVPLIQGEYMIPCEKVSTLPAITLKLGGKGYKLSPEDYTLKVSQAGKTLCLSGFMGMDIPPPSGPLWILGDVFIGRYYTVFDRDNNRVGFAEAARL

| pIC50 [1] | pKi (Cat D) | preference for Cat D over BACE (Cat D; BACE Ki versus Cat D Ki) | recovery at 60 min [2] | recovery at 1 h, 1 μM [3] | Compound | preference for BACE over Cat D (Cat D; Cat D Ki versus BACE Ki) |
| --- | --- | --- | --- | --- | --- | --- |
| 5.70 | 7.70 | 7.5 fold | 0% | 100% | CCCN(CCC)C(=O)c1cccc(C(=O)N[C@@H](CC(C)C)[C@@H](O)C[C@@H](C)C(=O)N[C@H](C(=O)NCc2ccccc2)C(C)C)c1 [R = OH] |  |
| 6.13 | 6.21 |  | 43% | 100% | CCCN(CCC)C(=O)c1cccc(C(=O)N[C@@H](CC(C)C)[C@@H](N)C[C@@H](C)C(=O)N[C@H](C(=O)NCc2ccccc2)C(C)C)c1 [R = NH2] | over a three fold preference for BACE over Cat D |
